Assay results published in PMC7013731, “Elucidating the Structural Basis of the Intracellular pH Sensing Mechanism of TASK-2 K2P Channels” (International Journal of Molecular Sciences, 2020).

What was measured:
TASK-2 = target: T1, TASK-2 (Mus musculus, UniProt Q9JK62); experiment: whole-cell patch clamp, transfected HEK-293 cells; format: cell-based
T1 construct: gene Kcnk5; full-length TASK-2 plasmid transiently expressed in HEK-293 cells with separate GFP marker plasmid; homodimer
T1 sequence (Q9JK62 1-502): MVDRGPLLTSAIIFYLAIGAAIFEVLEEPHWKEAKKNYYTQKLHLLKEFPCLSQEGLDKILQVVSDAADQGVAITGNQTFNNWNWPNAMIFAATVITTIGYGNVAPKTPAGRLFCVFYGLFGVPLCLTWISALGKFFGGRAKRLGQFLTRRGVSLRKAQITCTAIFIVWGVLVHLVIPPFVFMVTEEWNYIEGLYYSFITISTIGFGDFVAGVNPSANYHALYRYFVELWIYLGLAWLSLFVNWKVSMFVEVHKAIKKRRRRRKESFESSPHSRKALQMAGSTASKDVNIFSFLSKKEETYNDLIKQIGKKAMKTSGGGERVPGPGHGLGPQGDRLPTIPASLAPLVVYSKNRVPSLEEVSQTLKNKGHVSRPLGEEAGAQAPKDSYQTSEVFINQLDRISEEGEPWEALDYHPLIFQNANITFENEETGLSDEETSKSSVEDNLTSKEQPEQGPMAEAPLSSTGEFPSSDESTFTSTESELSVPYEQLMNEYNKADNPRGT

Lys245 = Lys245 (UniProt position 245, LFVNWKVSMFV); experiment: electrophysiology; settings: wild-type channel, gating by intracellular pH (pHi); cited from earlier work

Row | IC50 (TASK-2) [µM] | Molecule | pKa (Lys245)
1 | 17 ± 5 | NCCC(Oc1ccc(C(F)(F)F)cc1)c1ccccc1 (racemic) [norfluoxetine] | –
2 | – | TASK-2 (K2P5.1, TWIK-related acid-sensitive K+ channel 2) (Mus musculus (inferred from GenBank AF319542; species not stated in the article)) | ~8.0
